{"source": "paper PMC5218480", "about": "(PLoS ONE, 2017)", "test_system": "MV-4-11 cells", "test": "Gene expression microarray analysis (Affymetrix PrimeView) and GSEA", "format": "cell-based, human", "design": "RFU PODN (11730768_x_at) / Fold change /veh PODN (11730768_x_at) / RFU LINC00158 (11744669_a_at) / Fold change /veh LINC00158 (11744669_a_at) / RFU DUSP10 (11751237_a_at) / Fold change /veh DUSP10 (11751237_a_at) / RFU ID3 (11757404_x_at) / Fold change /veh ID3 (11757404_x_at) / RFU PLEKHG5 (11737974_s_at) / Fold change /veh PLEKHG5 (11737974_s_at) / RFU LRRC4B (11730491_at) / Fold change /veh LRRC4B (11730491_at) / RFU GIMAP4 (11747438_a_at) / Fold change /veh GIMAP4 (11747438_a_at) / RFU KRT8 (11758183_x_at) / Fold change /veh KRT8 (11758183_x_at) / RFU CNN1 (11734310_a_at) / Fold change /veh CNN1 (11734310_a_at) / RFU VPS37D (11726825_at) / Fold change /veh VPS37D (11726825_at) / RFU C10orf10 (11716522_x_at) / Fold change /veh C10orf10 (11716522_x_at) / RFU KIR2DL2 /// KIR2DL4 /// KIR2DL5A /// KIR2DL5B /// KIR2DS1 /// KIR2DS2 /// KIR2DS3 /// KIR2DS4 /// KIR3DL3 /// KIR3DL3 /// KIR3DS1 (11738374_at) / Fold change /veh KIR2DL2 /// KIR2DL4 /// KIR2DL5A /// KIR2DL5B /// KIR2DS1 /// KIR2DS2 /// KIR2DS3 /// KIR2DS4 /// KIR3DL3 /// KIR3DL3 /// KIR3DS1 (11738374_at) / RFU C1QL1 (11718748_at) / Fold change /veh C1QL1 (11718748_at) / RFU TMPRSS4 (11747572_a_at) / Fold change /veh TMPRSS4 (11747572_a_at) / RFU HAMP (11756126_x_at) / Fold change /veh HAMP (11756126_x_at) / RFU RNFT2 (11725882_a_at) / Fold change /veh RNFT2 (11725882_a_at) / RFU NR4A2 (11747474_a_at) / Fold change /veh NR4A2 (11747474_a_at) / RFU ABCC12 (11746883_a_at) / Fold change /veh ABCC12 (11746883_a_at) / RFU TMEM136 (11760407_x_at) / Fold change /veh TMEM136 (11760407_x_at) / RFU CLDN22 /// WWC2 (11732394_at) / Fold change /veh CLDN22 /// WWC2 (11732394_at) / RFU HLA-DPB1 (11760878_x_at) / Fold change /veh HLA-DPB1 (11760878_x_at) / RFU SPINT1 (11716480_a_at) / Fold change /veh SPINT1 (11716480_a_at) / RFU GAP43 (11754022_s_at) / Fold change /veh GAP43 (11754022_s_at) / RFU A4GNT (11735810_at) / Fold change /veh A4GNT (11735810_at) / RFU PRB3 (11715151_x_at) / Fold change /veh PRB3 (11715151_x_at) / RFU TUBB4B (11761932_at) / Fold change /veh TUBB4B (11761932_at) / RFU CAPN14 (11732068_a_at) / Fold change /veh CAPN14 (11732068_a_at) / RFU TMCC2 (11721928_a_at) / Fold change /veh TMCC2 (11721928_a_at) / RFU IRGQ (11745062_a_at) / Fold change /veh IRGQ (11745062_a_at) / RFU FAM174B (11720279_a_at) / Fold change /veh FAM174B (11720279_a_at) / RFU TMPRSS4 (11748680_a_at) / Fold change /veh TMPRSS4 (11748680_a_at) / RFU FAM212B (11763350_a_at) / Fold change /veh FAM212B (11763350_a_at) / RFU PLEKHG5 (11743358_a_at) / Fold change /veh PLEKHG5 (11743358_a_at) / RFU ZSCAN30 (11745921_a_at) / Fold change /veh ZSCAN30 (11745921_a_at) / RFU CMKLR1 (11741424_a_at) / Fold change /veh CMKLR1 (11741424_a_at) / RFU LOC101060620 /// MAPK8IP1 (11723275_at) / Fold change /veh LOC101060620 /// MAPK8IP1 (11723275_at) / RFU SPTSSB (11747773_x_at) / Fold change /veh SPTSSB (11747773_x_at) / RFU PRSS12 (11739890_at) / Fold change /veh PRSS12 (11739890_at) / RFU BIN1 (11741810_x_at) / Fold change /veh BIN1 (11741810_x_at) / RFU WNT11 (11732464_a_at) / Fold change /veh WNT11 (11732464_a_at) / RFU C10orf10 (11716521_a_at) / Fold change /veh C10orf10 (11716521_a_at) / RFU C5orf56 (11738089_at) / Fold change /veh C5orf56 (11738089_at) / RFU CYB561 (11721691_x_at) / Fold change /veh CYB561 (11721691_x_at) / RFU ANKRD19P (11752326_a_at) / Fold change /veh ANKRD19P (11752326_a_at) / RFU OR2T12 /// OR2T33 /// OR2T8 (11738714_s_at) / Fold change /veh OR2T12 /// OR2T33 /// OR2T8 (11738714_s_at) / RFU VCAN (11748164_a_at) / Fold change /veh VCAN (11748164_a_at) / RFU JSRP1 (11732532_at) / Fold change /veh JSRP1 (11732532_at) / RFU KRTAP10-11 (11738290_x_at) / Fold change /veh KRTAP10-11 (11738290_x_at) / RFU MYO3A (11730013_a_at) / Fold change /veh MYO3A (11730013_a_at) / RFU EBF3 (11725865_a_at) / Fold change /veh EBF3 (11725865_a_at) / RFU CAMK2N1 (11719241_x_at) / Fold change /veh CAMK2N1 (11719241_x_at) / RFU C5orf56 (11738088_a_at) / Fold change /veh C5orf56 (11738088_a_at) / RFU OLFML3 (11715873_a_at) / Fold change /veh OLFML3 (11715873_a_at) / RFU LOC100653217 /// NTM (11731650_a_at) / Fold change /veh LOC100653217 /// NTM (11731650_a_at) / RFU MAPK11 (11762145_a_at) / Fold change /veh MAPK11 (11762145_a_at) / RFU FIZ1 (11724087_x_at) / Fold change /veh FIZ1 (11724087_x_at) / RFU OASL (11726364_x_at) / Fold change /veh OASL (11726364_x_at) / RFU SOX15 (11748057_x_at) / Fold change /veh SOX15 (11748057_x_at) / RFU CD79A (11719716_a_at) / Fold change /veh CD79A (11719716_a_at) / RFU HIST1H1D (11736915_at) / Fold change /veh HIST1H1D (11736915_at) / RFU CASKIN2 (11723855_a_at) / Fold change /veh CASKIN2 (11723855_a_at) / RFU LOC730098 (11760151_x_at) / Fold change /veh LOC730098 (11760151_x_at) / RFU OR4N2 (11742367_at) / Fold change /veh OR4N2 (11742367_at) / RFU PRRT2 (11749266_a_at) / Fold change /veh PRRT2 (11749266_a_at) / RFU SNX32 (11753110_a_at) / Fold change /veh SNX32 (11753110_a_at) / RFU CDHR5 (11726645_a_at) / Fold change /veh CDHR5 (11726645_a_at) / RFU RCAN1 (11760418_a_at) / Fold change /veh RCAN1 (11760418_a_at) / RFU FAM167A (11723789_a_at) / Fold change /veh FAM167A (11723789_a_at) / RFU FAM26E (11764081_at) / Fold change /veh FAM26E (11764081_at) / RFU ISYNA1 (11749810_s_at) / Fold change /veh ISYNA1 (11749810_s_at) / RFU ACY1 (11761880_at) / Fold change /veh ACY1 (11761880_at) / RFU 11764098_at / Fold change /veh 11764098_at / RFU SAMD14 (11745864_x_at) / Fold change /veh SAMD14 (11745864_x_at) / RFU NPB (11741838_a_at) / Fold change /veh NPB (11741838_a_at) / RFU TMPRSS6 (11731388_a_at) / Fold change /veh TMPRSS6 (11731388_a_at) / RFU KRTAP10-2 (11738614_at) / Fold change /veh KRTAP10-2 (11738614_at) / RFU ARHGAP8 /// PRR5-ARHGAP8 (11727945_x_at) / Fold change /veh ARHGAP8 /// PRR5-ARHGAP8 (11727945_x_at) / RFU KRTAP5-7 /// NADSYN1 (11734609_at) / Fold change /veh KRTAP5-7 /// NADSYN1 (11734609_at) / RFU RASL12 (11751679_a_at) / Fold change /veh RASL12 (11751679_a_at) / RFU CDKN2B (11736163_a_at) / Fold change /veh CDKN2B (11736163_a_at) / RFU PRF1 (11729649_at) / Fold change /veh PRF1 (11729649_at) / RFU, ZNF638 /// ZNF638-IT1 / Fold change vs veh, ZNF638 /// ZNF638-IT1 / RFU, PANK3 / Fold change vs veh, PANK3 / RFU, SH3YL1 / Fold change vs veh, SH3YL1 / RFU, ZEB2 / Fold change vs veh, ZEB2 / RFU, NRIP1 / Fold change vs veh, NRIP1 / RFU, PTTG1IP / Fold change vs veh, PTTG1IP / RFU, CAPN2 / Fold change vs veh, CAPN2 / RFU, MED14 / Fold change vs veh, MED14 / RFU, SNORA58 / Fold change vs veh, SNORA58 / RFU, C1orf63 / Fold change vs veh, C1orf63 / RFU, LRRFIP1 / Fold change vs veh, LRRFIP1 / RFU, NDUFAF7 / Fold change vs veh, NDUFAF7 / RFU, SLC12A2 / Fold change vs veh, SLC12A2 / RFU, IBTK / Fold change vs veh, IBTK / RFU, ESF1 / Fold change vs veh, ESF1 / Fold change vs veh, TMEM50B / RFU, TAOK1 / Fold change vs veh, TAOK1 / RFU, ACBD3 / Fold change vs veh, ACBD3 / RFU, TMA16 / Fold change vs veh, TMA16 / RFU, RWDD3 / Fold change vs veh, RWDD3 / RFU, BCAT1 / Fold change vs veh, BCAT1 / RFU, EDEM3 / Fold change vs veh, EDEM3 / RFU, TMEM33 / Fold change vs veh, TMEM33 / RFU, WDR75 / Fold change vs veh, WDR75 / RFU, AHCTF1 / Fold change vs veh, AHCTF1 / RFU, TFRC / Fold change vs veh, TFRC / RFU, ZDHHC17 / Fold change vs veh, ZDHHC17 / RFU, NOM1 / Fold change vs veh, NOM1 / RFU, ARL8B / Fold change vs veh, ARL8B / RFU, ZBTB11 / Fold change vs veh, ZBTB11 / RFU, TAMM41 / Fold change vs veh, TAMM41 / RFU, KIAA1704 /// LOC100996395 / Fold change vs veh, KIAA1704 /// LOC100996395 / RFU, ING1 / Fold change vs veh, ING1 / RFU, TRMT61B / Fold change vs veh, TRMT61B / RFU, FUBP3 / Fold change vs veh, FUBP3 / RFU, TP53 / Fold change vs veh, TP53 / RFU, TNKS2 / Fold change vs veh, TNKS2 / RFU, ZFP14 / Fold change vs veh, ZFP14 / RFU, ACTR2 / Fold change vs veh, ACTR2 / RFU, PPP3R1 / Fold change vs veh, PPP3R1 / RFU, PIK3R1 / Fold change vs veh, PIK3R1 / RFU, HNRNPA1 / Fold change vs veh, HNRNPA1 / RFU, RNF170 / Fold change vs veh, RNF170 / RFU, ZNF28 / Fold change vs veh, ZNF28 / RFU, RNGTT / Fold change vs veh, RNGTT / RFU, OGT / Fold change vs veh, OGT / RFU, BRD1 / Fold change vs veh, BRD1 / RFU, MARS / Fold change vs veh, MARS / RFU, ZNF655 / Fold change vs veh, ZNF655 / RFU, FAHD1 / Fold change vs veh, FAHD1 / RFU, BDP1 / Fold change vs veh, BDP1 / RFU, LRRCC1 / Fold change vs veh, LRRCC1 / RFU, ARID1A / Fold change vs veh, ARID1A / RFU, ZNF146 / Fold change vs veh, ZNF146 / RFU, ZNF330 / Fold change vs veh, ZNF330 / RFU, GPN3 / Fold change vs veh, GPN3 / RFU, C9orf123 / Fold change vs veh, C9orf123 / RFU, N4BP2L2 / Fold change vs veh, N4BP2L2 / RFU, ARFIP1 / Fold change vs veh, ARFIP1 / RFU, FAM179B / Fold change vs veh, FAM179B / RFU, BCL10 / Fold change vs veh, BCL10 / RFU, UHRF1BP1L / Fold change vs veh, UHRF1BP1L / RFU, BET1 / Fold change vs veh, BET1 / RFU, CNOT2 / Fold change vs veh, CNOT2 / RFU, ZNF268 / Fold change vs veh, ZNF268 / Fold change vs veh, ZNF507 / RFU, DGCR2 / Fold change vs veh, DGCR2 / RFU, WDSUB1 / Fold change vs veh, WDSUB1 / Fold change vs veh, HSP90B1 /// MIR3652 / RFU, ADSS / Fold change vs veh, ADSS / RFU, GK / Fold change vs veh, GK / RFU, ZNF148 / Fold change vs veh, ZNF148 / RFU, TAF9 / Fold change vs veh, TAF9 / RFU, SLC1A5 / Fold change vs veh, SLC1A5 / RFU, SLMO2 / Fold change vs veh, SLMO2 / RFU, ABCC4 / Fold change vs veh, ABCC4 / RFU, LOC101060439 /// RAP1B / Fold change vs veh, LOC101060439 /// RAP1B / RFU, RFX7 / Fold change vs veh, RFX7 / RFU, GTPBP10 / Fold change vs veh, GTPBP10 / RFU, CNEP1R1 / Fold change vs veh, CNEP1R1 / RFU, BIVM-ERCC5 /// ERCC5 / Fold change vs veh, BIVM-ERCC5 /// ERCC5 / RFU, ILF3 / Fold change vs veh, ILF3 / RFU 11762660_at / Fold change /veh 11762660_at / RFU VCAN (11757783_s_at) / Fold change /veh VCAN (11757783_s_at) / RFU DDX43 (11728927_at) / Fold change /veh DDX43 (11728927_at) / RFU KRT8 (11758188_x_at) / Fold change /veh KRT8 (11758188_x_at) / RFU NKD1 (11759106_at) / Fold change /veh NKD1 (11759106_at) / RFU SRD5A1 (11742802_a_at) / Fold change /veh SRD5A1 (11742802_a_at) / RFU TPSAB1 /// TPSB2 (11721975_s_at) / Fold change /veh TPSAB1 /// TPSB2 (11721975_s_at) / RFU GSTM3 (11746129_a_at) / Fold change /veh GSTM3 (11746129_a_at) / RFU IL23R (11737362_x_at) / Fold change /veh IL23R (11737362_x_at) / RFU TMEM51 (11727254_a_at) / Fold change /veh TMEM51 (11727254_a_at) / RFU PIWIL2 (11732686_x_at) / Fold change /veh PIWIL2 (11732686_x_at) / RFU ORM1 (11744905_x_at) / Fold change /veh ORM1 (11744905_x_at) / RFU CCDC152 (11743942_at) / Fold change /veh CCDC152 (11743942_at) / RFU ECM1 (11717891_a_at) / Fold change /veh ECM1 (11717891_a_at) / RFU IL23R (11748794_a_at) / Fold change /veh IL23R (11748794_a_at) / RFU TNFAIP8L3 (11732012_x_at) / Fold change /veh TNFAIP8L3 (11732012_x_at) / RFU MBOAT4 (11741988_at) / Fold change /veh MBOAT4 (11741988_at) / RFU 11764193_at / Fold change /veh 11764193_at / RFU TMEM53 (11763286_at) / Fold change /veh TMEM53 (11763286_at) / RFU MAGEB2 (11727129_at) / Fold change /veh MAGEB2 (11727129_at) / RFU TMEM200A (11744735_a_at) / Fold change /veh TMEM200A (11744735_a_at) / RFU CCDC152 (11751479_a_at) / Fold change /veh CCDC152 (11751479_a_at) / RFU FAM211A (11726209_a_at) / Fold change /veh FAM211A (11726209_a_at) / RFU RGS16 (11746705_a_at) / Fold change /veh RGS16 (11746705_a_at) / RFU VCAN (11755009_s_at) / Fold change /veh VCAN (11755009_s_at) / RFU RHOB (11743442_s_at) / Fold change /veh RHOB (11743442_s_at) / RFU RGS16 (11720943_a_at) / Fold change /veh RGS16 (11720943_a_at) / RFU RGS16 (11720944_at) / Fold change /veh RGS16 (11720944_at) / RFU, VPS4B / Fold change vs veh, VPS4B / RFU, CREB1 / Fold change vs veh, CREB1 / RFU, DNAJC13 / Fold change vs veh, DNAJC13 / RFU, GNAQ / Fold change vs veh, GNAQ / RFU, CDK5R1 / Fold change vs veh, CDK5R1 / RFU, ZRANB3 / Fold change vs veh, ZRANB3 / RFU, CUL4A / Fold change vs veh, CUL4A / RFU, CCNY / Fold change vs veh, CCNY / RFU, UFL1 / Fold change vs veh, UFL1 / RFU, COG3 / Fold change vs veh, COG3 / RFU, DIAPH2 / Fold change vs veh, DIAPH2 / RFU, SKA2 / Fold change vs veh, SKA2 / RFU, AFF3 / Fold change vs veh, AFF3 / RFU, LMF1 / Fold change vs veh, LMF1 / RFU, IPO11 / Fold change vs veh, IPO11 / RFU, DFFB / Fold change vs veh, DFFB / RFU, FOXP1 / Fold change vs veh, FOXP1 / RFU, CARD8 / Fold change vs veh, CARD8 / RFU, STRN3 / Fold change vs veh, STRN3 / RFU, ADK / Fold change vs veh, ADK / RFU, RASSF2 / Fold change vs veh, RASSF2 / RFU, WIPF1 / Fold change vs veh, WIPF1 / RFU, LARP1B / Fold change vs veh, LARP1B / RFU, RASA1 / Fold change vs veh, RASA1 / RFU, RB1 / Fold change vs veh, RB1 / RFU, PPFIA1 / Fold change vs veh, PPFIA1 / RFU, MAT2A / Fold change vs veh, MAT2A / RFU, CCT5 / Fold change vs veh, CCT5 / RFU, WDR92 / Fold change vs veh, WDR92 / RFU, CUX1 / Fold change vs veh, CUX1 / RFU, TTC7A / Fold change vs veh, TTC7A / RFU, TMEM135 / Fold change vs veh, TMEM135 / RFU, DEPTOR / Fold change vs veh, DEPTOR / RFU, CPM / Fold change vs veh, CPM / RFU, DNAJB6 / Fold change vs veh, DNAJB6 / RFU, CACNA2D3 / Fold change vs veh, CACNA2D3 / RFU, DTX4 / Fold change vs veh, DTX4 / RFU, TFCP2 / Fold change vs veh, TFCP2 / RFU, GMCL1 /// GMCL1P1 / Fold change vs veh, GMCL1 /// GMCL1P1 / RFU, AEBP2 / Fold change vs veh, AEBP2 / RFU, SNHG1 /// SNORD22 /// SNORD25 /// SNORD26 /// SNORD27 /// SNORD28 /// SNORD29 /// SNORD31 / Fold change vs veh, SNHG1 /// SNORD22 /// SNORD25 /// SNORD26 /// SNORD27 /// SNORD28 /// SNORD29 /// SNORD31 / Fold change (Aza/veh), C12orf56 (ProbeSet 11735607_a_at) / Fold change (ACY-1035/veh), C12orf56 (ProbeSet 11735607_a_at) / Fold change (Aza/veh), FGFR1OP (ProbeSet 11751329_s_at) / Fold change (ACY-1035/veh), FGFR1OP (ProbeSet 11751329_s_at) / Fold change (Aza/veh), VPS36 (ProbeSet 11739960_a_at) / Fold change (ACY-1035/veh), VPS36 (ProbeSet 11739960_a_at) / RFU SYPL1 (11715823_x_at) / Fold change /veh SYPL1 (11715823_x_at) / RFU IGFBP7 (11715501_s_at) / Fold change /veh IGFBP7 (11715501_s_at) / RFU REEP3 (11722064_at) / Fold change /veh REEP3 (11722064_at) / RFU IGLL1 (11728026_x_at) / Fold change /veh IGLL1 (11728026_x_at): dose or concentration left out as unconfirmed", "details": "MV-4-11 cells, 48 hours", "data": [{"smiles": "Nc1ccc(-c2cccs2)cc1NC(=O)c1ccc2c(c1)cc(C1CC1)n2CCN1CCOCC1", "note": "[ACY-1035]", "values": [{"measurement": "Fold change /veh TMEM136 (11760407_x_at)", "result": 1.12}]}]}
